Test results reported in US9499790B2, “Method for promoting differentiation of pluripotent stem cells into cardiac muscle cells” (Kyoto University, priority 2010, dated 2016).

Assays:
[1] = test system: Wnt signaling target genes in human iPS cells; experiment: Gene expression analysis by DNA array and quantitative polymerase chain reaction; type: cell-based; settings: FIG. 9
Procedure: (in the order of the genes whose expression were reduced most 12 hours later) HOXA1, MSGN1, NKD1, T, TNFRSF11B, DKK1, DKK4, CDX2, MSX1, NODAL, FGF4, PAPPA, PRRX1, LRAT, CYP1B1, SLC34A2, AXIN2, LGL1, SPS, MIXL1, APCDD1 and DSEL. […] The analyzed genes were as follows: MSGN1, HOXA1; T, MIXL1; Dkk1, AXIN2; NODAL and FGF4 (all known as Wnt signaling target genes).

[2] = test system: Monkey ES cells; experiment: Cardiac muscle cell differentiation of monkey ES cells, 6-well plate, GFP expression observed at day 14; type: cell-based; settings: for effect of BIO on the compound's effect of cardiac muscle cell differentiation (GFP expression): BIO 5 μM added together with the compound during day 4 to 10; for effect of BIO on the compound's effect of cardiac muscle cell differentiation (GFP expression) / increase in the GFP expression level: GFP at day 14
Excerpt: In the same manner as Example 2, the effects of promoting cardiac muscle cell differentiation were compared among KY02111 and N11474, known Wnt signaling inhibitors (IWP2, XAV939 and IWR1), proteins known to be effective in promoting cardiac muscle cell differentiation (G-CSF, IGFBP4, Dkk1 and cytokines (a mixture of bFGF, BMP4, VEGF, DKK1 and Activin A)).
The effect of BIO, a Wnt signaling activator, on the effect of promoting cardiac muscle cell differentiation of KY02111, XAV939 and IWP2 was analyzed. […]

[3] = test system: monkey ES cells (CMK 6.4 cynomolgus monkey ES cell line); experiment: Cardiac muscle cell differentiation of monkey ES cells, compound day 4 to 8, GFP fluorescence at day 10 (MetaMorph); type: cell-based; settings: for effect of promoting cardiac muscle cell differentiation, SO2031 versus SO3042: 0.4 μM and 2 μM, separate experiment; for effect of promoting cardiac muscle cell differentiation, carbon chain length (n) series: FIG. 16; for effect compared to SO3031 (KY01-I): low dose (0.1 μM)
Excerpt: Compounds substituted at the position R7 of Formula 1, which corresponds to Cl of KY02111, were synthesized and examined for the effect of promoting cardiac muscle cell differentiation in a dose-dependent manner in monkey ES cells as described in Example 2. Specifically, a vector expressing green fluorescent protein (GFP) under control of promoter of α-MHC gene, a marker of cardiac muscle cell differentiation, was introduced into monkey ES cells (CMK 6.4 cynomolgus monkey ES cell line) and the cells were seeded on 6-well culture plates (Asahi Glass/5816-006: Ezview culture plate) in 4.0×10^5 cells/well, and cultured in an IMDM-based differentiation medium for cardiac muscle cells (200 ml IMDM (Sigma) containing 50 ml bovine fetal serum (GIBCO), 2.5 ml MEM non-essential amino acid solution (Sigma), 2.5 ml penicillin-streptomycin (GIBCO), 2.5 ml 200 mM L-glutamine, 2 μl 2-mercaptoethanol). Each compound was added to the cells during day 4 to day 8 of the cardiac muscle cell differentiation culture, and the GFP fluorescence was analyzed at day 10 by using MetaMorph imaging system.

[4] = test system: human ES cells (KhES-3); experiment: Percentage of cardiac muscle cells by flow cytometry with cardiac troponin T (cTnT) antibody; type: cell-based; settings: 2 μM during days 3-8; 3 μM CHIR99021 first two days; without compound 17.9%
Procedure: (§1) The effect of promoting cardiac muscle cell differentiation of SO2031 (KY02-I) was confirmed using human ES cells (KhES-3) and iPS cells (IMR90-1) (FIG. 19). Induction of cardiac muscle cell differentiation was performed as described previously (Cell Reports, Volume 2, Issue 5, 1448-1460, 25 Oct. 2012). Specifically, IMDM (Sigma) containing 1% MEM non-essential amino acid solution (Sigma), 1% penicillin-streptomycin (Gibco), 2 mM L-glutamine (Sigma), 0.5 mM L-carnitine (Sigma), 0.001% 2-mercaptoethanol (Gibco), and 0.4% human serum albumin (Sigma) was used for culture. Cardiac muscle cell differentiation was induced in Ultra-low attachment culture dish (Corning) by floating culture. During the first two days, 3 μM CHIR99021, a WNT activator, was added, and during days 3-8 of culture, 2 μM SO2031 (KY02-I) was added. Efficiency of cardiac muscle cell differentiation was determined by calculating the percentage of cardiac muscle cells by flow cytometry using an antibody for cardiac troponin T (cTnT), a cardiac-specific marker molecule.

[5] = test system: human iPS cells (IMR90-1); experiment: as above; type: cell-based; settings: 2 μM during days 3-8; 3 μM CHIR99021 first two days; without compound 3.7%
Procedure: as §1

[6] = Solubility in medium (observation of crystals); type: physicochemical; settings: after 24 hours
Procedure: SO2031 (KY02-I) was dissolved in 20% serum-containing medium (200 ml IMDM (Sigma) containing 50 ml bovine fetal serum (GIBCO), 2.5 ml MEM non-essential amino acid solution (Sigma), 2.5 ml penicillin-streptomycin (GIBCO), 2.5 ml 200 mM L-glutamine, 2 μl 2-mercaptoethanol) at 20 μM, and in serum-free medium (200 ml IMDM (Sigma) containing 2.5 ml MEM non-essential amino acid solution (Sigma), 2.5 ml penicillin-streptomycin (GIBCO), 2.5 ml 200 mM L-glutamine, 2 μl 2-mercaptoethanol) at 3 or 20 μM and observed after 24 hours (FIG. 20). […] As the compound is not crystallized, the concentration of the compound in the medium is stably maintained. Also, there is no possibility that the crystals affect the cells, and there is no risk that the crystals remained in the cells are transferred to and affect the host at transplantation.

[7] = nitrovin 1 μM during day 8 to 12, singly

For `O=C1Nc2cc(Br)ccc2/C1=C1/Nc2ccccc2/C1=N\O` [BIO, reference compound], the “expressions of MSGN1, HOXA1, T, MIXL1, Dkk1, AXIN2, NODAL and FGF4 (Wnt signaling target genes) by qPCR” value (“expressions of MSGN1, HOXA1, T, MIXL1” for short) [1] was “increased”.

With `Cc1ccc2nc(NC(=O)CSc3nc4c(c(=O)n3-c3ccccc3)SCC4)sc2c1` [IWP2, reference compound] the “effect of BIO on the compound's effect of cardiac muscle cell differentiation (GFP expression)” value [2] was “inhibited” and the “expressions of MSGN1, HOXA1, T, MIXL1” value [1] was “reduced”.

In the case of `COc1ccc(CCC(=O)Nc2nc3ccc([N+](=O)[O-])cc3s2)cc1OC` [KY01042, 2-(3-(3,4-dimethoxyphenyl)propanamide)-6-nitrobenzothiazole], the “increase in the GFP expression level” value ([2]; 10 μM during day 4 to 10) is reported as 7000%.

For `COc1ccc(CCC(=O)Nc2nc3ccc(I)cc3s2)cc1OC` [SO2031, 2-(3-(3,4-dimethoxyphenyl)propanamid)-6-iodobenzothiazole], the “effect of promoting cardiac muscle cell differentiation, times higher than that of KY02111” value ([3]; 0.1 μM) was “about 16 times”, the “effect of promoting cardiac muscle cell differentiation, times higher than that of SO087” value ([3]; 0.1 μM) was “about 5.2 times” and the “effect of promoting cardiac muscle cell differentiation, SO2031 versus SO3042” value ([3]; 0.1 μM, FIG. 17) was “comparable effect”. The “effect of promoting cardiac muscle cell differentiation, times higher than that of KY02111” value ([3]; 1 μM) was about 6.3 times, the “effect of promoting cardiac muscle cell differentiation, times higher than that of SO087” value ([3]; 1 μM) was about 2 times and the “effect of promoting cardiac muscle cell differentiation, times higher than that of KY02111” value ([3]; 10 μM) was about 2.1 times. For the same molecule, the “effect of promoting cardiac muscle cell differentiation, times higher than that of SO087” value ([3]; 10 μM) was about 1.6 times, the “effect of promoting cardiac muscle cell differentiation, times higher than that of KY02111” value ([3]; 30 μM) was about 1.5 times and the “effect of promoting cardiac muscle cell differentiation, times higher than that of SO087” value ([3]; 30 μM) was about 1.1 times. The “effect of promoting cardiac muscle cell differentiation, carbon chain length (n) series” value [3] was “higher effect compared to KY02111”, the “effect compared to SO3031 (KY01-I)” value [3] was 2.7 times and the “ratio of cardiac muscle cells (cTnT)” value [4] was 77.9%. The “ratio of cardiac muscle cells (cTnT)” value [5] was 56.8%, the crystals in medium ([6]; 20% serum-containing medium at 20 μM, serum-free medium at 3 or 20 μM) was “Large crystals were not observed” and the crystals in medium ([6]; serum-free medium, 3 μM) was “almost no crystal was observed”.

With `COc1ccc(CC(=O)Nc2nc3ccc(I)cc3s2)cc1OC` [SO3031, 2-(2-(3,4-dimethoxyphenyl)acetamide)-6-iodobenzothiazole] the “effect of promoting cardiac muscle cell differentiation, carbon chain length (n) series” value [3] was “higher effect compared to KY02111”.

In the case of `COc1ccc(CCCC(=O)Nc2nc3ccc(I)cc3s2)cc1OC` [SO3042, 2-(4-(3,4-dimethoxyphenyl)butamide)-6-iodobenzothiazole], the “effect of promoting cardiac muscle cell differentiation, SO2031 versus SO3042” value ([3]; 0.1 μM, FIG. 17) is reported as “comparable effect”, the “effect of promoting cardiac muscle cell differentiation, carbon chain length (n) series” value [3] is reported as “higher effect compared to KY02111” and the “effect compared to SO2031 (KY02-I)” value ([3]; high dose (10 μM or 30 μM)) is reported as 1.3 times. The “effect of promoting cardiac muscle cell differentiation, SO3042 versus SO2031” value ([3]; higher dose (10 μM), FIG. 17) was “slightly higher than that of SO2031” and the “effect compared to SO3031 (KY01-I)” value [3] was 2.8 times.

In the case of `Oc1nc(-c2ccc(C(F)(F)F)cc2)nc2c1CSCC2` [XAV939, reference compound], the “effect of BIO on the compound's effect of cardiac muscle cell differentiation (GFP expression)” value [2] is reported as “inhibited” and the “expressions of MSGN1, HOXA1, T, MIXL1” value [1] is reported as “reduced”.

In the case of `N=C(N)NN=C(/C=C/c1ccc([N+](=O)[O-])o1)/C=C/c1ccc([N+](=O)[O-])o1` [nitrovin, reference compound], the “increase in the GFP expression level” value ([2]; 5 μM during day 8 to 14) is reported as “about 400%”, the “increase in the GFP expression level versus Control (DMSO)” value [2, 7] is reported as “about 3 times” and the “proportion of beating colonies” value [2, 7] is reported as “about 16%”. The “ratio of number of GFP colonies” value [2, 7] was “about 22%”.

B1: G-CSF: granulocyte-colony stimulating factor (protein, UniProt P09919 31-207, looked up)
Granulocyte …: TPLGPASSLPQSFLLKCLEQVRKIQGDGAALQEKLVSECATYKLCHPEELVLLGHSLGIPWAPLSSCPSQALQLAGCLSQLHSGLFLYQGLLQALEGISPELGPTLDTLQLDVADFATTIWQQMEELGMAPALQPTQGAMPAFASAFQRRAGGVLVASHLQSFLEVSYRVLRHLAQP
With B1 the “increase in the GFP expression level” value ([2]; 5 ng/ml during day 4 to 10) was “about 250%”.
